Results on 9 molecules are retold here after ChEMBL document CHEMBL5291721, “A preclinical secondary pharmacology resource illuminates target-adverse drug reaction associations of marketed drugs” (Nat Commun, 2023).

Experiment [1] has as its target T1, Equilibrative nucleoside transporter 1 (Homo sapiens, UniProt Q99808).
T1 sequence (Q99808 whole entry): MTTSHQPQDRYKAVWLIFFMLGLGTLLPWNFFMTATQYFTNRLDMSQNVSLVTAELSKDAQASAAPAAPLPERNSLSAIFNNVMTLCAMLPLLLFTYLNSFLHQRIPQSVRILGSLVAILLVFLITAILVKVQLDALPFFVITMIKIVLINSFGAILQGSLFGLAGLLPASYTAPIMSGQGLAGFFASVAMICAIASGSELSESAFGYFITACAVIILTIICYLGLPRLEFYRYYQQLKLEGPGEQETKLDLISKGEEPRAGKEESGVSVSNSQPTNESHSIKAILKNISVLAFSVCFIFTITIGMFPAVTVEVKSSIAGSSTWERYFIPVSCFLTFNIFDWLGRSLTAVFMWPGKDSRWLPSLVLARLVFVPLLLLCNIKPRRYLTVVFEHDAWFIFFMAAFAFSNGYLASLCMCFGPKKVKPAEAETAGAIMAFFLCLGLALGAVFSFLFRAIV

Experiment [2] has as its target Histamine H3 receptor (Homo sapiens, UniProt Q9Y5N1).
In experiment [3] the target is Voltage-gated inwardly rectifying potassium channel KCNH2 (Homo sapiens, UniProt Q12809). Format: functional. To be noted: read-out: AC50.
Sequence of Voltage-gated inwardly rectifying potassium channel KCNH2 (Q12809 whole entry): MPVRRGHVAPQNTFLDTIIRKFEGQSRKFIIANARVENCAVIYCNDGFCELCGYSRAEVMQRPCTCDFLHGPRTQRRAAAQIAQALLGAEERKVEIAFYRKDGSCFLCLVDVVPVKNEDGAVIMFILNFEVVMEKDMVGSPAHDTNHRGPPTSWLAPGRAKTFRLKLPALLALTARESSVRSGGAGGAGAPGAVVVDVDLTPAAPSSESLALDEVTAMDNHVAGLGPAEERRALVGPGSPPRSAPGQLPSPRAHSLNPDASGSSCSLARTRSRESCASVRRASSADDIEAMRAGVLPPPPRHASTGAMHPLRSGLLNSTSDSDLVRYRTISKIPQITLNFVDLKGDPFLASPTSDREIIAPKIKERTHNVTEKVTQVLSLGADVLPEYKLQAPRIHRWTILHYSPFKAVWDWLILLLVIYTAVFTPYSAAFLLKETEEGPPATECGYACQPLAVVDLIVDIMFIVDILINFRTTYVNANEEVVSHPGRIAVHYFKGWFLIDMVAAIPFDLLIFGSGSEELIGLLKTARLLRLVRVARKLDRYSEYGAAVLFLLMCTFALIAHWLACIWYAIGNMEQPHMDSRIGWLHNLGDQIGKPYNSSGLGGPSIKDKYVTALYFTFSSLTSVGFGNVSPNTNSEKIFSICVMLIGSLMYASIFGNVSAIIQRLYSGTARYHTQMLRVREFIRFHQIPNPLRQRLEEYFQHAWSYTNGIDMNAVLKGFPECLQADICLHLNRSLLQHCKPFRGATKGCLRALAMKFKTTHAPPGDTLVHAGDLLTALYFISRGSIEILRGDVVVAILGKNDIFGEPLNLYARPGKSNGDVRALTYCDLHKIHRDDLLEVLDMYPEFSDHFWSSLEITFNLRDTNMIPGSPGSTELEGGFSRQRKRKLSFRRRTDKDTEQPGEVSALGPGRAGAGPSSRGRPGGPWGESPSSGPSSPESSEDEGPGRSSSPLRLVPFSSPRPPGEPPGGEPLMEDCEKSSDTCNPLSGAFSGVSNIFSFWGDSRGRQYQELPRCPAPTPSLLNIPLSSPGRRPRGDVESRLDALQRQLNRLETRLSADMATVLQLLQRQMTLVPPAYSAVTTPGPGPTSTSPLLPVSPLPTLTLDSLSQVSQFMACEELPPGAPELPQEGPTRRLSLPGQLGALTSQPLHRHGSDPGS
The target in experiment [4] is T2, Estrogen receptor (Homo sapiens, UniProt P03372).
T2 sequence (P03372 whole entry): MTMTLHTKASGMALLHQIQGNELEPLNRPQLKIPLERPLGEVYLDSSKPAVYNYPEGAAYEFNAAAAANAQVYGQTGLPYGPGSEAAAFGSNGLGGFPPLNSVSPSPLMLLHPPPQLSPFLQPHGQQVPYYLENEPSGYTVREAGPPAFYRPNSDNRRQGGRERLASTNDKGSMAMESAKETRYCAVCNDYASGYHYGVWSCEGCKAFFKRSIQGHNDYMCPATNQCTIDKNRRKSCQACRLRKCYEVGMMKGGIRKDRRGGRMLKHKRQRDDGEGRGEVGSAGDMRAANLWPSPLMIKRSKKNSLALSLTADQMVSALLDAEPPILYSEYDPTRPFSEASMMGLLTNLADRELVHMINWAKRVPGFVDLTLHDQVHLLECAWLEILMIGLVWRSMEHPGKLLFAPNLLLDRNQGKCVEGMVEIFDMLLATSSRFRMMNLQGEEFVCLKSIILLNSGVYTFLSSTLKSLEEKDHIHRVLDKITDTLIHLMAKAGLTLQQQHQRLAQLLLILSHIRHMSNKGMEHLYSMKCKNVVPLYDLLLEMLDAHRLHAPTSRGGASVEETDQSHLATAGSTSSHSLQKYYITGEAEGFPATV

For experiment [5], the target named is Sodium-dependent dopamine transporter (Homo sapiens, UniProt Q01959).
Sequence of Sodium-dependent dopamine transporter (Q01959 whole entry): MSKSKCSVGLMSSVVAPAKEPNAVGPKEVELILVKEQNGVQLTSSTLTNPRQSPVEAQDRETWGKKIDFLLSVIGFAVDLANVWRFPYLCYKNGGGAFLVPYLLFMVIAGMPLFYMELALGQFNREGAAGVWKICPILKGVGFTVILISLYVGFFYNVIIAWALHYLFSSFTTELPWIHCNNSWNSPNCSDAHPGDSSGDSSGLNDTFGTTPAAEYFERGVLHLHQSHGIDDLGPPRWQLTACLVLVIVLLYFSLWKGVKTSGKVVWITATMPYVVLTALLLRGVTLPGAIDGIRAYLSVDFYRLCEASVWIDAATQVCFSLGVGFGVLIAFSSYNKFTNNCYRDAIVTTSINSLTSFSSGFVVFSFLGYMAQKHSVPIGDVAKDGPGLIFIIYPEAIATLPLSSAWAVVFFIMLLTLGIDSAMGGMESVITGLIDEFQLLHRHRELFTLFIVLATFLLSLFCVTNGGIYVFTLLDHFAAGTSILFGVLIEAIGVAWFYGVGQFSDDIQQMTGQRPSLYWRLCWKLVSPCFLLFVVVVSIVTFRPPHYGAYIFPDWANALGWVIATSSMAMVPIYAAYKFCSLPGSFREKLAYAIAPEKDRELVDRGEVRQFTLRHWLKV
For experiment [6], the target named is 3',5'-cyclic-AMP phosphodiesterase 4D (Homo sapiens, UniProt Q08499). The class given is functional.
Sequence of 3',5'-cyclic-AMP phosphodiesterase 4D (Q08499 whole entry): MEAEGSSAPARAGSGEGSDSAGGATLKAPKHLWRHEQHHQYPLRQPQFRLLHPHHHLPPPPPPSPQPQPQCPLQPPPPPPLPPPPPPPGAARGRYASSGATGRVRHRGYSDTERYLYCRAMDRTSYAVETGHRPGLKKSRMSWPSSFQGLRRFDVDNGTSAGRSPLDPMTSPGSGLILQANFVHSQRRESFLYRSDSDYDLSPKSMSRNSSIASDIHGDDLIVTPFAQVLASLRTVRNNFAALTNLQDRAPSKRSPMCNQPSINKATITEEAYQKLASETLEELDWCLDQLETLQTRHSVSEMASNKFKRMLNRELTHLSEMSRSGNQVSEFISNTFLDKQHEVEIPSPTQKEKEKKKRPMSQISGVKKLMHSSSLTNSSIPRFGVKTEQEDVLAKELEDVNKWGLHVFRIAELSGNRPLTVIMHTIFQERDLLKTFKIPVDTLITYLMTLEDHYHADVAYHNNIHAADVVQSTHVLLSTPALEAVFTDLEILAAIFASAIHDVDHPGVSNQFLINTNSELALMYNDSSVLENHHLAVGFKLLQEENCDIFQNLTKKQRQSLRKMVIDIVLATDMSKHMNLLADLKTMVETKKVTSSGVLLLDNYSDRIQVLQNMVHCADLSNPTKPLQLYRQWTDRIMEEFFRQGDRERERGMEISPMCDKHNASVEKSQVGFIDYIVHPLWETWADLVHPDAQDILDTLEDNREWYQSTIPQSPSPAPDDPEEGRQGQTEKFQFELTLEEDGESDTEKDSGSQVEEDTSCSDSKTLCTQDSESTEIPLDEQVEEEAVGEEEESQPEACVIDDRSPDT
The target of experiment [7] is D(1A) dopamine receptor (Homo sapiens, UniProt P21728). Format: functional, cell-based.
Sequence of D(1A) dopamine receptor (P21728 whole entry): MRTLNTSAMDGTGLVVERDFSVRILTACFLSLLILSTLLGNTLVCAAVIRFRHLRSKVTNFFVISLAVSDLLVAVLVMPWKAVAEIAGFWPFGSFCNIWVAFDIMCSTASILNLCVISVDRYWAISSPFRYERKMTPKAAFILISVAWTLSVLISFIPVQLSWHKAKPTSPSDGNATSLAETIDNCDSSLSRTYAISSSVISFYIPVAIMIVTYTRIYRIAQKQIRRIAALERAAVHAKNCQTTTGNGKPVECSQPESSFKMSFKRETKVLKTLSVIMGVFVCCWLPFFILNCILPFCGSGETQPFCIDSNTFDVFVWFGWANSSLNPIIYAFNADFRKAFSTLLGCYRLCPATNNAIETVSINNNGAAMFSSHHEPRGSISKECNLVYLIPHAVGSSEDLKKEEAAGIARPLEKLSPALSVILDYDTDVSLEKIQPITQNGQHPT
The target in experiment [8] is T3, Muscarinic acetylcholine receptor M1 (Homo sapiens, UniProt P11229).
T3 sequence (P11229 whole entry): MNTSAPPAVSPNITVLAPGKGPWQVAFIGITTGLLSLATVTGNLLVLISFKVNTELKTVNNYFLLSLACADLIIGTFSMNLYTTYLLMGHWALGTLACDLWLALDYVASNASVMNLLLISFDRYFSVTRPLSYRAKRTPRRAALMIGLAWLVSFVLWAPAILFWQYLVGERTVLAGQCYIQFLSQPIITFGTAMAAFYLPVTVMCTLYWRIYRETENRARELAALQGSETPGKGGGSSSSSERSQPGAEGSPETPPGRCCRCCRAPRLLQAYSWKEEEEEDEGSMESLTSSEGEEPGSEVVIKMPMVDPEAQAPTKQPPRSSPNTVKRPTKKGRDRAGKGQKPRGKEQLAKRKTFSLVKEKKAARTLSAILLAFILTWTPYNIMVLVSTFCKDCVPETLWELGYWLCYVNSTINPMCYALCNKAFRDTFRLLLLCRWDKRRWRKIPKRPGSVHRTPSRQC
The class given is functional.

In experiment [9] the target is T4, Alpha-2C adrenergic receptor (Homo sapiens, UniProt P18825).
T4 sequence (P18825 whole entry): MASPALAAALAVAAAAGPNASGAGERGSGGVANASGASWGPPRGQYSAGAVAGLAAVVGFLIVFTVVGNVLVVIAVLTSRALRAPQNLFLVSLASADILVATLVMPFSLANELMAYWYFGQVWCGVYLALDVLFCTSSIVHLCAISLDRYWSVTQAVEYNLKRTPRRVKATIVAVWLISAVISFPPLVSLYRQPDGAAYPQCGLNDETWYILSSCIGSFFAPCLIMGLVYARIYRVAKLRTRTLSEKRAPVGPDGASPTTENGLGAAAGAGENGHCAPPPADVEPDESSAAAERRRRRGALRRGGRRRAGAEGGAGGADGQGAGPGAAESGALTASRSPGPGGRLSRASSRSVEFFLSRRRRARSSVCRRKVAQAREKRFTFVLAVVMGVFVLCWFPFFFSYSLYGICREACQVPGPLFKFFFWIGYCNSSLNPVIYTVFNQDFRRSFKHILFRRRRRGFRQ
Format: functional.

The target in experiment [10] is T5, Type-1 angiotensin II receptor (Homo sapiens, UniProt P30556).
T5 sequence (P30556 whole entry): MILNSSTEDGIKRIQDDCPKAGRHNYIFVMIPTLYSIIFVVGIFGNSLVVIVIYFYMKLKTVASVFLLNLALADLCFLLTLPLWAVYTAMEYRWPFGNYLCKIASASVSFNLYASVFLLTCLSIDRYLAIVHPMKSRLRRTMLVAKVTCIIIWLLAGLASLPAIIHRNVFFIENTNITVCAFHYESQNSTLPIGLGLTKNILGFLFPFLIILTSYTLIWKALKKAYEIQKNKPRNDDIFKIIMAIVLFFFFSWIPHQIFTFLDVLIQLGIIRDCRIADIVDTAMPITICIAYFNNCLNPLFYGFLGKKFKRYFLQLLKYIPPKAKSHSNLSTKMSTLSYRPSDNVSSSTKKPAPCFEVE

The target of experiment [11] is Gamma-aminobutyric acid receptor subunit alpha-1 (Rattus norvegicus, UniProt P62813).
Sequence of Gamma-aminobutyric acid receptor subunit alpha-1 (P62813 whole entry): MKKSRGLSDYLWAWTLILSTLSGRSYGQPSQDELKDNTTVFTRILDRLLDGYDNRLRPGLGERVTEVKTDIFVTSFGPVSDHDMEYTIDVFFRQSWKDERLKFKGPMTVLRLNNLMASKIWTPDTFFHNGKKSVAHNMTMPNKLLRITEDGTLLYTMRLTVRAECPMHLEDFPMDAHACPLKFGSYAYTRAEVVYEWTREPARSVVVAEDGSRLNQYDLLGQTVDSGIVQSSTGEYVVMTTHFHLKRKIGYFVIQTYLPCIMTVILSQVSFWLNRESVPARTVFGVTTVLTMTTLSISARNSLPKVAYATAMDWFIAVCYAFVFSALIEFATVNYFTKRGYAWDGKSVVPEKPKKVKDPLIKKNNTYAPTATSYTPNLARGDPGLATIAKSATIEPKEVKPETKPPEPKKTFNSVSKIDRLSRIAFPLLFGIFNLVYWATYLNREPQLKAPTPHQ
In experiment [12] the target is Vasopressin V1a receptor (Homo sapiens, UniProt P37288).
Sequence of Vasopressin V1a receptor (P37288 whole entry): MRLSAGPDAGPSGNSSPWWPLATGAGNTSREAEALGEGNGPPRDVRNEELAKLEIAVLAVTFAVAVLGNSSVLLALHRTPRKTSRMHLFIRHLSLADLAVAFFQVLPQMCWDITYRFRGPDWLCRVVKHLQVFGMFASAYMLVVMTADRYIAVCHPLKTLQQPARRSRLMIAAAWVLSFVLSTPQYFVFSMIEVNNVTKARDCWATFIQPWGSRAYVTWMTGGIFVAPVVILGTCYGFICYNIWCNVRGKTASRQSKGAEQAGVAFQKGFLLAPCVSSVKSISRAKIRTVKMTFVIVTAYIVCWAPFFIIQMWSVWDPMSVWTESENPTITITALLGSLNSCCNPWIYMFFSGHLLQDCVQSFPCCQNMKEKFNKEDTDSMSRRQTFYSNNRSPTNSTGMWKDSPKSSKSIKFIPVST
Experiment [13] deals with 5-hydroxytryptamine receptor 2B (Homo sapiens, UniProt P41595). The class given is functional, cell-based.
Sequence of 5-hydroxytryptamine receptor 2B (P41595 whole entry): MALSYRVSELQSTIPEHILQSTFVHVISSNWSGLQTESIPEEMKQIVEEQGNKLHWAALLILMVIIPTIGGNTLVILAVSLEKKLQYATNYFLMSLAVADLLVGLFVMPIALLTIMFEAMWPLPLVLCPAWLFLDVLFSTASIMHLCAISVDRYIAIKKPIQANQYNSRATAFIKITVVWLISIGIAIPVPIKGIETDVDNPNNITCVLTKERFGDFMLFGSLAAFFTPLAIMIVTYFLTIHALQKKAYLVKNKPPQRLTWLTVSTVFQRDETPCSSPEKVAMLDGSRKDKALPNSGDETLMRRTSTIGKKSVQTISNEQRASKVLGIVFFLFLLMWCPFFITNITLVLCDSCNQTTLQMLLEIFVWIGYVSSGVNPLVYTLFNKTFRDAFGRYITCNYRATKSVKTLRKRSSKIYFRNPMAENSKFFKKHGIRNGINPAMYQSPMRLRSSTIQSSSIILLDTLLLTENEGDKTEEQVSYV
Note: assay procedure not described here.

Sequence of Histamine H3 receptor (Q9Y5N1 whole entry): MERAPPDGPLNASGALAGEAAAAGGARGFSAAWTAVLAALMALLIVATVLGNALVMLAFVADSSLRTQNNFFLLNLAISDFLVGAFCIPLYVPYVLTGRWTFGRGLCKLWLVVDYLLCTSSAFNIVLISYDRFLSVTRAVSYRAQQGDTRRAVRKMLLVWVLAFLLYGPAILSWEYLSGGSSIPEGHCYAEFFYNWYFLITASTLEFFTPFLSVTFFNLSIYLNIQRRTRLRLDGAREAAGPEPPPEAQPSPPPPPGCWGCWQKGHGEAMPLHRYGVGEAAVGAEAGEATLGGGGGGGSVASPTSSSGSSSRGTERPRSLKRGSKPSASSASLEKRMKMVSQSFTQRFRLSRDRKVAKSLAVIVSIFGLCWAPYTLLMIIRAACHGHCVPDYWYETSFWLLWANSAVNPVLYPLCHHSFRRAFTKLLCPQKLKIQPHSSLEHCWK

For `N#Cc1ccccc1-c1cc(-c2ccccn2)cn(-c2ccccc2)c1=O`, the AC50 in [1] is more than 30 µM; in experiment [2] it was more than 30 µM; in experiment [3] it was more than 30 µM; in [4] it was more than 30 µM; in [5], more than 30 µM; in experiment [6], 13 µM. Besides, the concentration at half-maximal activity (AC50) in [7], in [8], in experiment [9], in experiment [10], in [11] and in experiment [12] was more than 30 µM each time. This molecule also displayed an AC50 in experiment [13] of more than 30 µM.
Take `N=C(N)NCCCCCCC(=O)NC(O)C(=O)NCCCCNCCCN` (stereo unspecified): the half-maximal activity concentration (AC50) in experiment [1], in experiment [2], in experiment [3], in [4], in experiment [5] and in experiment [6] was more than 30 µM in each case. The AC50 in experiment [7], in experiment [8], in experiment [9], in experiment [10], in [11] and in [12] was more than 30 µM each time. In addition, the AC50 in [13] is more than 30 µM.
Consider `CC(=O)OCC(=O)[C@@]1(O)CC[C@H]2[C@@H]3CCC4=CC(=O)CC[C@]4(C)C3=CC[C@@]21C` [ANECORTAVE ACETATE], for which the AC50 in experiment [1] was more than 10 µM; in experiment [2] it was more than 10 µM; in experiment [3], more than 30 µM; in experiment [4], more than 30 µM; in [5], more than 10 µM; in experiment [6], more than 30 µM. Also, the half-maximal activity concentration (AC50) in [7], in experiment [8], in [9], in experiment [10], in experiment [11] and in [12] was more than 10 µM throughout. This molecule displayed a half-maximal activity concentration (AC50) in [13] of more than 10 µM.
With `O=C(CCCN1CCC(n2c(O)nc3ccccc32)CC1)c1ccc(F)cc1` [BENPERIDOL], the concentration at half-maximal activity (AC50) in [1] was more than 30 µM; in [2], 18 µM; in [3] it was 0.11 µM; in experiment [4], more than 30 µM; in experiment [5] it was 11 µM; in [6], more than 30 µM. In addition, the AC50 in [7] was more than 30 µM; in [8], 13 µM; in experiment [9] it was 1.9 µM; in experiment [10] it was more than 30 µM; in experiment [11], more than 30 µM; in experiment [12], more than 30 µM. This molecule also yielded an AC50 in [13] of more than 30 µM.
Turning to `CCN(CC)C(=O)C1CN2CCc3cc(OC)c(OC)cc3C2CC1OC(C)=O` (stereo unspecified) [BENZQUINAMIDE], the concentration at half-maximal activity (AC50) in experiment [1], in experiment [2], in [3], in [4], in [5] and in [6] was more than 30 µM in each case. Moreover, the half-maximal activity concentration (AC50) in experiment [7] is more than 30 µM; in experiment [8], more than 30 µM; in [9], 1.7 µM; in [10], more than 30 µM; in experiment [11], more than 30 µM; in experiment [12], more than 30 µM. Besides, in experiment [13], the concentration at half-maximal activity (AC50) is more than 30 µM.
On to `CCC(=O)OCC(=O)[C@@]1(OC(=O)CC)[C@@H](C)C[C@H]2[C@@H]3CCC4=CC(=O)C=C[C@]4(C)[C@@]3(F)[C@@H](O)C[C@@]21C` [BETAMETHASONE DIPROPIONATE], for which the concentration at half-maximal activity (AC50) is more than 30 µM in experiment [1]; more than 30 µM in experiment [2]; more than 30 µM in experiment [3]; more than 10 µM in [4]; more than 30 µM in [5]; more than 30 µM in [6]. For the same molecule, the AC50 in experiment [7], in experiment [8], in experiment [9], in experiment [10], in experiment [11] and in experiment [12] was more than 30 µM each time. In [13], this molecule had an AC50 of more than 30 µM.
In the case of `CCOC(=O)NNc1ccc(N(CC)CC(C)O)nn1` (stereo unspecified) [CADRALAZINE], the AC50 in experiment [1], in experiment [2], in experiment [3], in experiment [4], in experiment [5] and in experiment [6] was more than 30 µM throughout. In addition, the AC50 in [7], in [8], in experiment [9], in experiment [10], in experiment [11] and in experiment [12] was more than 30 µM throughout. The molecule further displayed an AC50 in [13] of more than 30 µM.
In the case of `CCCC(C)(COC(N)=O)COC(=O)NC(C)C` (stereo unspecified) [CARISOPRODOL], the concentration at half-maximal activity (AC50) is more than 30 µM in experiment [1]; more than 10 µM in experiment [2]; more than 30 µM in [3]; more than 30 µM in experiment [4]; more than 10 µM in experiment [5]; more than 30 µM in experiment [6]. Further, the AC50 was more than 10 µM in experiment [7]; more than 10 µM in experiment [8]; more than 10 µM in experiment [9]; more than 30 µM in experiment [10]; more than 10 µM in experiment [11]; more than 10 µM in [12]. Moreover, in [13], the AC50 was more than 10 µM.
With `COc1cc2c(Nc3ccc(Br)cc3F)ncnc2cc1OCC1CCN(C)CC1` [VANDETANIB], the AC50 was more than 30 µM in [1]; 2.1 µM in [2]; more than 30 µM in experiment [4]; 14 µM in experiment [5]; more than 30 µM in experiment [6]; more than 30 µM in [7]. The half-maximal activity concentration (AC50) in experiment [8] is 11 µM; in [9], 0.856 µM; in [10], more than 30 µM; in [11], more than 30 µM; in [12] it was more than 30 µM; in experiment [13], more than 30 µM.
